The values below come from ChEMBL document CHEMBL4483862, “Open-source discovery of chemical leads for next-generation chemoprotective antimalarials” (2018).

Bounds are passed on as bounds.

This assay concerns Plasmodium berghei. In words: Luciferase/luciferin-expressing antifolate-resistant parasites were used to infect a culture of HepG2 cells that were pre-incubated with compounds. Infected hepatocytes emit light due to the luciferase reaction. Assay results are presented as the percent inhibition of light emission compared to control. […]. The class given is functional. The settings on record: sporozoite; for IC90: read-out: LUCIFERASE INFECTION ASSAY - IC90.

With `Cc1noc(/C=C/c2nn(C)cc2Cl)c1[N+](=O)[O-]`, the IC90 (commonly the concentration needed for an effect of 90%) was determined as 11.7 µM. Further, the IC50 (in general, the midpoint of a concentration-inhibition curve) (HEPG2TOX_HILL_SLOPE 8.49, HEPG2TOX_R_SQUARED 0.211, PBLUC_HILL_SLOPE 2.15, PBLUC_R_SQUARED 0.722, read-out: LUCIFERASE INFECTION ASSAY - IC50) amounted to 4.22 µM.

In the case of `C[n+]1c(-c2ccccc2)cc(CCCCc2cc(-c3ccccc3)[n+](C)c(-c3ccccc3)c2)cc1-c1ccccc1`, the IC90 is over 10 µM. Moreover, the IC50 (HEPG2TOX_HILL_SLOPE 8.54, HEPG2TOX_R_SQUARED 0.649, PBLUC_HILL_SLOPE 17.9, PBLUC_R_SQUARED 0.599, read-out: LUCIFERASE INFECTION ASSAY - IC50) was determined as 9.47 µM.

Take `C=CCNc1nc2cc(-c3ccccc3C)sc2c(=O)n1C`: the IC90 was over 10.6 µM. Where the note is “HEPG2TOX_HILL_SLOPE 8.49, HEPG2TOX_R_SQUARED 0.617, read-out: LUCIFERASE INFECTION ASSAY - IC50”, the IC50 was over 10.6 µM.

In the case of `Cc1cccc(-c2nc3ccnc(Nc4ccc(C(C)C)cc4)c3[nH]2)c1`, the IC90 was over 10 µM. Moreover, the IC50 (HEPG2TOX_HILL_SLOPE 8.42, HEPG2TOX_R_SQUARED 0.9, PBLUC_HILL_SLOPE 13.4, PBLUC_R_SQUARED 0.519, read-out: LUCIFERASE INFECTION ASSAY - IC50) amounted to 8.58 µM.

As to `O=C(NC1CC1)c1ccc(-c2cn3c(-c4ccc5ncccc5c4)cnc3cn2)cc1`, the IC90 was over 8.14 µM. The IC50 (HEPG2TOX_HILL_SLOPE 8.34, HEPG2TOX_R_SQUARED 0.193, PBLUC_HILL_SLOPE 5.05, PBLUC_R_SQUARED 0.479, read-out: LUCIFERASE INFECTION ASSAY - IC50) came to 7.19 µM.

Consider `COc1ccc(N2C(=O)c3ccccc3C(C=NNC(=O)c3ccc(C)cc3)C2=O)cc1OC` (stereo unspecified), for which the IC90 turned out to be 5.03 µM. In addition, the 50% inhibitory concentration (IC50) (HEPG2TOX_HILL_SLOPE 8.3, HEPG2TOX_R_SQUARED 0.704, PBLUC_HILL_SLOPE 7.2, PBLUC_R_SQUARED 0.273, read-out: LUCIFERASE INFECTION ASSAY - IC50) amounted to 3.7 µM.

Regarding `O=C(Nc1ccc(OC(F)(F)F)cc1)Nc1ccc(Sc2ccccc2)nc1Sc1ccccc1`, the IC90 was determined as 1.18 µM. Besides, the IC50 (HEPG2TOX_HILL_SLOPE 8.48, HEPG2TOX_R_SQUARED 0.476, PBLUC_HILL_SLOPE 1.76, PBLUC_R_SQUARED 0.832, read-out: LUCIFERASE INFECTION ASSAY - IC50) was 0.339 µM.

`COc1ccccc1NC(=O)C(C)OC(=O)c1ccc(NS(=O)(=O)c2ccc(Cl)c(Cl)c2)cc1` (stereo unspecified): the IC90 was over 10 µM. Where the note is “HEPG2TOX_HILL_SLOPE 8.29, HEPG2TOX_R_SQUARED 0.881, read-out: LUCIFERASE INFECTION ASSAY - IC50”, the 50% inhibitory concentration (IC50) was over 10 µM.

For `COc1cc(OC)c(C2NC(=O)c3ccc(Cl)cc3N2)cc1OC` (stereo unspecified), the IC90 was over 10 µM. Moreover, where the note is “HEPG2TOX_HILL_SLOPE 8.48, HEPG2TOX_R_SQUARED 0.352, read-out: LUCIFERASE INFECTION ASSAY - IC50”, the IC50 is over 10 µM.

On to `O=C(NCc1sccc1CSc1ccc(Cl)cc1)Nc1cccc(C(F)(F)F)c1`, for which the 90% effect concentration (IC90) worked out at 5.08 µM. The half-inhibitory concentration (IC50) (HEPG2TOX_HILL_SLOPE 8.54, HEPG2TOX_R_SQUARED 0.938, PBLUC_HILL_SLOPE 7.51, PBLUC_R_SQUARED 0.41, read-out: LUCIFERASE INFECTION ASSAY - IC50) is 3.79 µM.

In the case of `CS(=O)(=O)Nc1ccc(-c2csc(NC(=O)c3sc4sccc4c3Cl)n2)cc1`, the IC90 worked out at 9.72 µM. Further, for the setting “HEPG2TOX_HILL_SLOPE 8.43, HEPG2TOX_R_SQUARED 0.307, PBLUC_HILL_SLOPE 11.2, PBLUC_R_SQUARED 0.136, read-out: LUCIFERASE INFECTION ASSAY - IC50”, the concentration for half-maximal inhibition (IC50) worked out at 7.99 µM.

On to `CC(=O)c1cccc(-c2cnc3ccc(-c4cccc(C(F)(F)F)c4)nn23)c1`, for which the IC90 worked out at 4.27 µM. For the same compound, the IC50 (HEPG2TOX_HILL_SLOPE 8.49, HEPG2TOX_R_SQUARED 0.595, PBLUC_HILL_SLOPE 2.29, PBLUC_R_SQUARED 0.849, read-out: LUCIFERASE INFECTION ASSAY - IC50) worked out at 1.64 µM.

For `O=C(NC1CC1)c1ccc(-c2cnc3c(Nc4cccc(OC(F)(F)C(F)F)c4)nccn23)cc1`, the IC90 turned out to be 2.49 µM. The IC50 (HEPG2TOX_HILL_SLOPE 8.49, HEPG2TOX_R_SQUARED 0.235, PBLUC_HILL_SLOPE 3.35, PBLUC_R_SQUARED 0.643, read-out: LUCIFERASE INFECTION ASSAY - IC50) worked out at 1.29 µM.

Turning to `CC(OC(=O)c1c(NC(=O)C2CCCCC2)sc2c1CCC2)C(=O)Nc1[nH]cnc2ncnc1-2` (stereo unspecified), the IC90 was over 10 µM. For the same compound, for the setting “HEPG2TOX_HILL_SLOPE 8.29, HEPG2TOX_R_SQUARED 0.38, read-out: LUCIFERASE INFECTION ASSAY - IC50”, the IC50 was over 10 µM.

`Cn1cc(-c2cn3c(-c4cccc(O)c4)cnc3cn2)cn1`: the 90% effect concentration (IC90) is over 11.3 µM. Further, the IC50 (HEPG2TOX_HILL_SLOPE 8.37, HEPG2TOX_R_SQUARED 0.807, PBLUC_HILL_SLOPE 3.66, PBLUC_R_SQUARED 0.561, read-out: LUCIFERASE INFECTION ASSAY - IC50) is 6.93 µM.

As for `Cc1cc(-c2ccccc2)c(-c2nc3ccccc3[nH]2)[nH]1`, the IC90 was determined as 1.38 µM. Further, the IC50 (HEPG2TOX_HILL_SLOPE 8.44, HEPG2TOX_R_SQUARED 0.516, PBLUC_HILL_SLOPE 11.1, PBLUC_R_SQUARED 0.785, read-out: LUCIFERASE INFECTION ASSAY - IC50) is 1.13 µM.

On to `Cc1c(C(=O)Nc2ccccc2C(=O)NC2CC2)cnn1-c1cccc(C(F)(F)F)c1`, for which the IC90 worked out at 0.41 µM. Where the note is “HEPG2TOX_HILL_SLOPE 8.3, HEPG2TOX_R_SQUARED 0.547, PBLUC_HILL_SLOPE 12.1, PBLUC_R_SQUARED 0.521, read-out: LUCIFERASE INFECTION ASSAY - IC50”, the IC50 was determined as 0.342 µM.

`O=C(Nc1cc(C(F)(F)F)cc(C(F)(F)F)c1)Nc1cnn(-c2ccccc2)c1C(F)(F)F`: the IC90 worked out at 2.67 µM. For the same compound, the IC50 (HEPG2TOX_HILL_SLOPE 8.4, HEPG2TOX_R_SQUARED 0.935, PBLUC_HILL_SLOPE 10.9, PBLUC_R_SQUARED 0.166, read-out: LUCIFERASE INFECTION ASSAY - IC50) came out at 2.19 µM.

For `COc1ccc(N/N=C2\C=CC(=O)c3ncccc32)cc1`, the IC90 is over 10 µM. For the same compound, the IC50 (HEPG2TOX_HILL_SLOPE 8.38, HEPG2TOX_R_SQUARED 0.289, PBLUC_HILL_SLOPE 16, PBLUC_R_SQUARED 0.427, read-out: LUCIFERASE INFECTION ASSAY - IC50) was determined as 9.1 µM.

Turning to `COc1cc(C(=O)NCCCn2ccc3ccccc32)cc(OC)c1C`, the IC90 is over 10 µM. Moreover, the IC50 (HEPG2TOX_HILL_SLOPE 8.33, HEPG2TOX_R_SQUARED 0.471, PBLUC_HILL_SLOPE 17.9, PBLUC_R_SQUARED 0.367, read-out: LUCIFERASE INFECTION ASSAY - IC50) is 9.65 µM.

For `CCOc1cc(C(=O)N/N=C/c2c(C)[nH]c3ccccc23)cc(OCC)c1OCC`, the IC90 is over 10 µM. Also, for the setting “HEPG2TOX_HILL_SLOPE 8.54, 2.60, HEPG2TOX_R_SQUARED 0.0840, 0.979, PBLUC_HILL_SLOPE 9.58, PBLUC_R_SQUARED 0.194, read-out: LUCIFERASE INFECTION ASSAY - IC50”, the IC50 was 9.1 µM.

Consider `Cc1cc(-c2ccccc2)nc2c1/C(=N\O)CC(C)(C)C2`, for which the IC90 was over 11.8 µM. The IC50 (HEPG2TOX_HILL_SLOPE 8.55, HEPG2TOX_R_SQUARED 0.808, PBLUC_HILL_SLOPE 3.52, PBLUC_R_SQUARED 0.12, read-out: LUCIFERASE INFECTION ASSAY - IC50) came out at 8.87 µM.

With `COc1ccc(-c2c(C)nn3c(NCc4ccccn4)cc(C)nc23)cc1OC`, the IC90 came out at 7.49 µM. Also, the IC50 (HEPG2TOX_HILL_SLOPE 8.52, HEPG2TOX_R_SQUARED 0.776, PBLUC_HILL_SLOPE 1.28, PBLUC_R_SQUARED 0.799, read-out: LUCIFERASE INFECTION ASSAY - IC50) is 1.34 µM.

Turning to `COc1ccc(CCN2C(=O)N(C(C)C)C(=O)C23CCN(Cc2cc4ccccc4[nH]2)CC3)cc1`, the concentration for an effect of 90% (IC90) worked out at 6.63 µM. For the same compound, the IC50 (HEPG2TOX_HILL_SLOPE 8.55, HEPG2TOX_R_SQUARED 0.942, PBLUC_HILL_SLOPE 15.5, PBLUC_R_SQUARED 0.628, read-out: LUCIFERASE INFECTION ASSAY - IC50) came to 5.75 µM.

On to `O=C(Nc1cccc(-n2cnnn2)c1)c1ccc(-c2ccccc2Cl)o1`, for which the IC90 was over 9.02 µM. The IC50 (HEPG2TOX_HILL_SLOPE 8.29, HEPG2TOX_R_SQUARED 0.71, PBLUC_HILL_SLOPE 14.4, PBLUC_R_SQUARED 0.296, read-out: LUCIFERASE INFECTION ASSAY - IC50) was determined as 8.92 µM.

Consider `COc1cc(-c2cnc3c(Nc4cccc(OC(F)(F)C(F)F)c4)nccn23)cc(OC)c1OC`, for which the IC90 was determined as 5.38 µM. The IC50 (HEPG2TOX_HILL_SLOPE 8.4, HEPG2TOX_R_SQUARED 0.356, PBLUC_HILL_SLOPE 3.39, PBLUC_R_SQUARED 0.397, read-out: LUCIFERASE INFECTION ASSAY - IC50) is 2.81 µM.

For the compound `CCCCNC(=O)c1c(NC(=O)c2cccc(C)c2)nc2ccccn12`, the IC90 turned out to be 6.37 µM. For the same compound, the IC50 (HEPG2TOX_HILL_SLOPE 8.37, HEPG2TOX_R_SQUARED 0.0961, PBLUC_HILL_SLOPE 7.21, PBLUC_R_SQUARED 0.187, read-out: LUCIFERASE INFECTION ASSAY - IC50) is 4.7 µM.

For the compound `OCc1cccc(-c2cnc3ccc(-c4cccc(OC(F)(F)F)c4)nn23)c1`, the IC90 worked out at 4.21 µM. Besides, the IC50 (HEPG2TOX_HILL_SLOPE 8.38, HEPG2TOX_R_SQUARED 0.945, PBLUC_HILL_SLOPE 12.7, PBLUC_R_SQUARED 0.452, read-out: LUCIFERASE INFECTION ASSAY - IC50) worked out at 3.54 µM.
